Results as given in article PMC4593031, “Azobenzene Modified Imidacloprid Derivatives as Photoswitchable Insecticides: Steering Molecular Activity in a Controllable Manner” (Scientific Reports, 2015).
Values joined by “and” are separate entries in the source; they are usually repeats but may differ in a detail not shown here. Equal entries are not always repeated. Where two headings read alike, the source gives them in different places.

Tests used:
[1] = UV/Vis absorption of photoisomers; type: physicochemical; conditions: for λmax n-π* (cis): cis isomer; for λmax π-π* (trans): trans isomer
Description: The photoswitchable behaviors of AMIs at room temperature were characterized by UV/Vis absorption, NMR spectroscopy and HPLC studies. […] Upon irradiation with ultraviolet (365 nm), a gradual intensity decrease at 327 nm and increase at 410–500 nm was detected corresponding to the π–π* and n–π* transition band, respectively (Fig. 3B). The reverse spectral changes were observed upon irradiation at 436 nm (data not shown). All the other compounds gave the similar spectral changes when illuminated with light. The proportions of E/Z isomer at the photostationary states before and after irradiation were determined by HPLC analysis (Table 1). Most of the compounds could produced more than 80% cis isomers upon irradiation. […] The photoisomerization of AMI-10 was further identified by ^1H NMR spectroscopy with the notable appearance of two double peaks at δ 7.25 and 6.85, respectively (Supplementary Fig. S1 online).
Varian Cary 100 UV-vis spectrophotometer was used for obtaining absorption (UV-Vis) spectra. The solutions of compounds were irradiated with a UV lamp (365 nm). The cis to trans photoisomeriation were performed with a light-emitting diode (blue light, 450 nm). The corresponding UV-Vis spectrums were collected in supplmentary files. The photostationary states were determined by high performance liquid chromatography (HPLC) measurements and the trans/cis ratios were calculated at the isosbestic points.

[2] = system: house fly (Musca domestica); test: Insecticidal test for house fly by intrathoracic injection; type: in vivo; conditions: for Musca domestica in vivo LD50: intrathoracic injection, mortality at 24 h
Method: The ability of azobenzene to regulate insecticidal activities remains unexplored. To better understand the activity changes induced by light, the efficacy before and after irradiation was tested by leaf-dip method for cowpea aphid (Aphis craccivora) and intrathoracic injection against house fly (Musca domestica)[46][47]. Against cowpea aphid, all the isomers had low activity and no significant difference was observed between two photo isomers (Supplementary Table S1 online). We attribute this observation to the poor solubility at the testing concentrations.
Thus, injection of chemicals into house fly was employed to evaluate their intrinsic activity (Table 2). House fly is a most commonly used indicator for both in vitro and in vivo insecticidal activity. Replacement of chloropyridinyl in IMI with AB leads to a deleterious effect on in vivo activity to house fly as exemplified by analogues AMI-1, 2 and 5 with LD50 values of more than 10 μg/g irrespective of irradiation or not. […] No obvious difference was observed between the trans and cis form of AMI-9.
House fly adults were anesthetized with carbon dioxide for 10 min and then were treated with the AMIs dissolved in distilled water or 10% DMSO aqueous solution by intrathoracic injection (0.4 μL for each fly). Twenty flies were treated for each dosage with duplicate samples. The mortality rates were counted twenty-four hours after treatment. Each treatment had three repetitions and the data subjected to probit analysis.

[3] = molecular target: house fly brain nAChR; test: nAChR binding in vitro, competitive inhibition of [3H]NMI binding; conditions: 1 nM [3H]NMI, house fly head membranes, read-out: Musca domestica in vitro IC50, [3H]NMI
Method: Tritium labeled nitromethylene analogue of IMI ([^3H]NMI) is a unique reporter for monitoring nAChR binding not only in vitro but also in vivo due to its extremely high binding potency. Here, the in vitro interaction of AMIs with house fly brain nAChR was measured by competitive inhibition of [^3H]NMI binding (Table 2). Photoisomers of AMI-1, 2, 5, and 6 had very poor ability to displacing [^3H]NMI binding (IC50 > 2000 nM) leading to difficulty for difference judgement. […] A 4-fold difference was achieved on AMI-4 and 10 upon photoirradiation. Compounds AMI-9 or AMI-10 have some similarities with the bis-IMI derivatives disclosed by Kagabu et al.[49][50][51]. […] Among various spacers investigated, the heptamethylene or furan-2,5-dimethylene was the optimal bridge. The N-PhN=NPh-N lengths for trans and cis isomers of AMI-9 or AMI-10 are about 12.29 Ǻ and 6.82 Ǻ or 12.59 Ǻ and 8.14 Ǻ, respectively. While for the bis-IMI linked by heptamethylene, the distance is 9.96 Ǻ, close to that of cis-AMI-10. The shorter or longer distance of the linker may decrease the activity. Furthermore, the lack of heteroatom in the AB linker which is important for stabilizing the interaction with the receptor further attenuated the activity.
House fly heads were collected after the fly adults frozen with liquid nitrogen were broken into body parts. Then the heads were homogenized in 0.1 mM EDTA, 0.32 M sucrose and 100 mM sodium phosphate (pH 7.4). The homogenate was treated by filtering through four layers of 64-μm mesh nylon screen. After centrifuging at 500 g for 30 min, the supernatant was collected and again filtered through using the method above. After centrifuging at 25,000 g for 60 min at 4 °C, the pellet was resuspended in binding buffer (mixture of 50 mM sodium chloride and 10 mM sodium phosphate, pH 7.4). These brain membranes were used fresh or stored for up to several weeks at −80 °C. Then 1 nM [^3H]NMI, varying concentrations of neonicotinoids and 300–500 μg membrane protein in a final volume of 500 μL was incubated at 22 °C for 60 min. The reaction mixture was filtered through Whatman GF/B glass-fiber filters prewetted by binding buffer using a Brandel M-24R Harvester (Gaithersburg, MD) to quantitate the bound [^3H]NMI, followed by two rinses each with binding buffer (5 mL) and final liquid scintillation. Nonspecific binding was determined with unlabeled NMI (20 μM). Specific binding was about 80–90% of total binding. The percentage inhibition was determined from two (compounds AMI-1, AMI-2, AMI-5, AMI-6 and azobenzene whose activities were extremely low) or three separate experiments each with triplicate samples. Half maximal inhibitory concentration (IC50) were determined by nonlinear regression analysis for logarithm of inhibitor concentration versus probit percentage inhibition.

[4] = Photoswitching cycles / constant irradiation (fatigue resistance); type: physicochemical; conditions: multiple cycles of photoisomerization or constant irradiation at 365 nm for 1 h

Row | Molecule | λmax n-π* (cis) [1] | λmax π-π* (trans) [1] | Musca domestica in vivo LD50 ([2]; irradiated) | Musca domestica in vivo LD50 ([2]; nonirradiated) | IC50 ([3]; irradiated) | IC50 ([3]; nonirradiated) | photo bleaching or photo-oxidation [4] | poisoning sign in house fly ([2]; under the tested concentrations) | Musca domestica in vivo LD50 ([2]; irradiated, listed as 5) | Musca domestica in vivo LD50 ([2]; nonirradiated, listed as 5)
1 | 2-chloro-5-(((E)-2-(nitromethylene)-3-(2-((E)-phenyldiazenyl)benzyl)imidazolidin-1-yl)methyl)pyridine [AMI-6] | 433 nm | 322 nm | >10 µg/g | >10 µg/g | > 2000 nM | > 2000 nM |  |  |  | 
2 | O=[N+]([O-])/N=C1\N(Cc2ccc(Cl)nc2)CCN1Cc1cccc(/N=N/c2ccccc2)c1 [AMI-3] | 431 nm | 317 nm | 4.4 ± 0.7 µg/g | 3.9 ± 0.5 µg/g | 1140 ± 106 nM | 250 ± 22 nM |  |  |  | 
3 | O=[N+]([O-])/N=C1/N(Cc2ccc(/N=N/c3ccccc3)cc2)CCN1Cc1ccc(Cl)nc1 [AMI-4] | 433 nm | 322 nm | 9.2 ± 1.6 µg/g | 6.5 ± 1.0 µg/g | 1220 ± 98 nM | 818 ± 92 nM |  |  |  | 
4 | O=[N+]([O-])/N=C1\N(Cc2ccc(Cl)nc2)CCN1Cc1cccc(/N=N/c2cccc(CN3CCN(Cc4ccc(Cl)nc4)/C3=N\[N+](=O)[O-])c2)c1 [AMI-9] | 429 nm | 319 nm | 3.0 ± 0.6 µg/g | 5.1 ± 0.8 µg/g | 1340 ± 154 nM | 1160 ± 141 nM |  |  |  | 
5 | O=[N+]([O-])N=C1N(Cc2ccc(N=Nc3ccc(CN4CCN(Cc5ccc(Cl)nc5)C4=N[N+](=O)[O-])cc3)cc2)CCN1Cc1ccc(Cl)nc1 [AMI-10] | 434 nm | 325 nm | 0.5 µg/g and 0.5 ± 0.08 µg/g | 2.8 µg/g and 2.8 ± 0.4 µg/g | 112 ± 13 nM | 466 ± 55 nM | No photo bleaching or photo-oxidation could be observed |  |  | 
6 | O=[N+]([O-])NC1=NCCN1Cc1ccc(Cl)nc1 [IMI, imidacloprid] |  |  | 0.05 ± 0.01 µg/g | 0.05 ± 0.01 µg/g | 28.8 ± 4 nM | 28.8 ± 4 nM |  |  |  | 
7 | c1ccc(/N=N/c2ccccc2)cc1 [azobenzene] |  |  | >10 µg/g | >10 µg/g | > 2000 nM | > 2000 nM |  | no significant poisoning sign was detected |  | 
8 | (E)-1-(3-(((E)-2-(nitromethylene)imidazolidin-1-yl)methyl)phenyl)-2-(3-(((Z)-2-(nitromethylene)imidazolidin-1-yl)methyl)phenyl)diazene [AMI-7] | 432 nm | 321 nm | 5.3 ± 1.0 µg/g | 7.9 ± 1.1 µg/g | 1730 ± 135 nM | 1860 ± 151 nM |  |  |  | 
9 | (Z)-2-(nitromethylene)-1-(2-((E)-phenyldiazenyl)benzyl)imidazolidine [AMI-5] | 436 nm | 320 nm | >10 µg/g | >10 µg/g | > 2000 nM | > 2000 nM |  |  | more than 10 μg/g | more than 10 μg/g
